# Experimental data: US6403343B2, “Method of producing a taxane-type diterpene and a method of obtaining cultured cells which produce the taxane-type dilterpene at a high rate” (Mitsui Chemicals, Inc., priority 1993, dated 2002)
# Tested on: cultured cells of Taxus baccata LINN
# Assay: Growth rate and taxane yield, 21-day shake culture of Taxus baccata cells with heavy metal compound, amine, antiethylene agent or Ethrel added
# Type: cell-based
# Description: (§1) One gram (fresh weight) of the callus was inoculated to an Erlenmeyer flask containing 20 ml of liquid Woody Plant Medium to which the above-mentioned component was added to give the same concentration and shake culture was carried out with a rotary shaker (amplification of 25 mm, 100 rpm) and the callus was subcultured in every 21 days to accelerate the growth rate thereof.
# Then shake culture was carried out at 25° C. for 21 days.
# After completing the culture, cultured cells of Taxus baccata LINN were harvested by filtration and lyophilized, then the dry weight was measured to obtain the growth rate thereof. Taxane-type diterpenes were extracted from the dried callus with methanol and the like, and they were determined by comparing with standard taxol, cephalomannine, and baccatin III using high performance liquid chromatography to measure the yields of the taxane-type diterpenes.
# as §1
# One gram (fresh weight) of the cultured cells thus obtained was inoculated to an Erlenmeyer flask containing 20 ml of liquid Woody Plant Medium to which the above-mentioned component had been added to give the same concentration, then spermidine was added to it as amine to give the final concentration of 10^−9M-1M. Then shake culture was carried out at 25° C. for 21 days.
# After completing the culture, cultured cells of Taxus baccata LINN were harvested by filtration and lyophilized, then the dry weight was measured to obtain the growth rate thereof. Taxane-type diterpenes were extracted from the dried cells with methanol and the like, and they were determined by comparing with standard taxol, cephalomannine, and baccatin III using high performance liquid chromatography to measure the yields of the taxane-type diterpene.
# One gram (fresh weight) of the callus was inoculated to an Erlenmeyer flask containing 20 ml of liquid Woody Plant Medium to which the above-mentioned component had been added to give the same concentration and shake culture was carried out with a rotary shaker (amplification of 25 mm, 100 rpm) and the callus was subcultured in every 21 days to accelerate the growth rate thereof.
# One gram (fresh weight) of the cultured cells thus obtained was inoculated to an Erlenmeyer flask containing 20 ml of liquid Woody Plant Medium to which the above-mentioned component had been added to give the same concentration, and shake culture was carried out at 25° C. for 14 days.
# [1] = Ethrel 10^−3 M added at the start (0 day), no acetylsalicylic acid, oxygen 20%
# [2] = Ethrel 10^−3 M added at the start (0 day), no acetylsalicylic acid, oxygen 20%, cell + medium
# [3] = Ethrel 10^−3 M added at the 14th day, no acetylsalicylic acid, oxygen 20%
# [4] = Ethrel 10^−3 M added at the 14th day, no acetylsalicylic acid, oxygen 20%, cell + medium
# [5] = 1 M added on 14th day, 7 more days
# [6] = 10^−1 M added on 14th day, 7 more days
# [7] = 10^−2 M added on 14th day, 7 more days
# [8] = 10^−3 M added on 14th day, 7 more days
# [9] = 10^−4 M added on 14th day, 7 more days
# [10] = 10^−5 M added on 14th day, 7 more days
# [11] = 10^−6 M added on 14th day, 7 more days
# [12] = 10^−7 M added on 14th day, 7 more days
# [13] = 10^−8 M added on 14th day, 7 more days
# [14] = 10^−9 M added on 14th day, 7 more days
# [15] = 2×10^−6 M added 5 times at 4 days' intervals from day 0, total 10^−5 M
# [16] = 10^−1 M added at start, 21 days
# [17] = 10^−2 M added at start, 21 days
# [18] = 10^−3 M added at start, 21 days
# [19] = 10^−4 M added at start, 21 days
# [20] = 10^−5 M added at start, 21 days
# [21] = 10^−5 M added on 7th day, 14 more days
# [22] = 10^−5 M added on 18th day, 3 more days
# [23] = 10^−5 M at start + methyl jasmonate 10^−4 M on 14th day
# [24] = 10^−5 M at start + methyl jasmonate 10^−4 M on 14th day, oxygen 10% in the gas phase
# [25] = 10^−5 M at start, oxygen 10% in the gas phase
# [26] = 10^−6 M added at start, 21 days
# [27] = 10^−7 M added at start, 21 days
# [28] = 10^−8 M added at start, 21 days
# [29] = 10^−9 M added at start, 21 days
smiles,measurement,setting,value
O=P(O)(O)CCCl [Reference Example 1],growth rate,[1],2.7 times
same,total yield of taxane,[1],0.40 mg/L
same,yield of baccatin III,[2],0.12 mg/L
same,yield of cephalomannine,[2],0.14 mg/L
same,yield of taxol,[2],0.14 mg/L
O=P(O)(O)CCCl [Reference Example 2],growth rate,[3],2.7 times
same,total yield of taxane,[3],0.30 mg/L
same,yield of baccatin III,[4],0.05 mg/L
same,yield of cephalomannine,[4],0.16 mg/L
same,yield of taxol,[4],0.09 mg/L
"Cl.NOCC(=O)O [aminooxyacetic acid, aminoxyacetic acid hydrochloride]",growth rate,[5],0.9 times
same,total yield of taxane,[5],0 mg/L
same,yield of baccatin III,[5],0 mg/L
same,yield of cephalomannine,[5],0 mg/L
same,yield of taxol,[5],0 mg/L
same,growth rate,[6],1.2 times
same,total yield of taxane,[6],1.03 mg/L
same,yield of baccatin III,[6],0.33 mg/L
same,yield of cephalomannine,[6],0.26 mg/L
same,yield of taxol,[6],0.44 mg/L
same,growth rate,[7],1.5 times
same,total yield of taxane,[7],1.93 mg/L
same,yield of baccatin III,[7],0.32 mg/L
same,yield of cephalomannine,[7],0.71 mg/L
same,yield of taxol,[7],0.90 mg/L
same,growth rate,[8],1.5 times
same,total yield of taxane,[8],3.43 mg/L
same,yield of baccatin III,[8],1.11 mg/L
same,yield of cephalomannine,[8],0.71 mg/L
same,yield of taxol,[8],1.61 mg/L
same,growth rate,[9],1.7 times
same,total yield of taxane,[9],5.80 mg/L
same,yield of baccatin III,[9],1.92 mg/L
same,yield of cephalomannine,[9],1.22 mg/L
same,yield of taxol,[9],2.66 mg/L
same,growth rate,[10],1.7 times
same,total yield of taxane,[10],3.81 mg/L
same,yield of baccatin III,[10],1.30 mg/L
same,yield of cephalomannine,[10],1.16 mg/L
same,yield of taxol,[10],1.35 mg/L
same,growth rate,[11],1.5 times
same,total yield of taxane,[11],3.00 mg/L
same,yield of baccatin III,[11],1.08 mg/L
same,yield of cephalomannine,[11],0.73 mg/L
same,yield of taxol,[11],1.19 mg/L
same,growth rate,[12],1.7 times
same,total yield of taxane,[12],2.33 mg/L
same,yield of baccatin III,[12],0.66 mg/L
same,yield of cephalomannine,[12],0.65 mg/L
same,yield of taxol,[12],1.02 mg/L
same,growth rate,[13],1.8 times
same,total yield of taxane,[13],2.00 mg/L
same,yield of baccatin III,[13],0.61 mg/L
same,yield of cephalomannine,[13],0.62 mg/L
same,yield of taxol,[13],0.77 mg/L
same,growth rate,[14],2.3 times
same,total yield of taxane,[14],1.38 mg/L
same,yield of baccatin III,[14],0.21 mg/L
same,yield of cephalomannine,[14],0.58 mg/L
same,yield of taxol,[14],0.59 mg/L
[Cl][Co][Cl] [cobalt chloride],growth rate,"1 M added at start, 21 days",0.6 times
same,total yield of taxane,"1 M added at start, 21 days",0 mg/L
same,yield of baccatin III,"1 M added at start, 21 days",0 mg/L
same,yield of cephalomannine,"1 M added at start, 21 days",0 mg/L
same,yield of taxol,"1 M added at start, 21 days",0 mg/L
same,growth rate,[15],2.6 times
same,total yield of taxane,[15],27.66 mg/L
same,yield of baccatin III,[15],5.32 mg/L
same,yield of cephalomannine,[15],6.58 mg/L
same,yield of taxol,[15],15.76 mg/L
same,growth rate,[16],0.8 times
same,total yield of taxane,[16],1.08 mg/L
same,yield of baccatin III,[16],0.11 mg/L
same,yield of cephalomannine,[16],0.42 mg/L
same,yield of taxol,[16],0.55 mg/L
same,growth rate,[17],1.4 times
same,total yield of taxane,[17],2.14 mg/L
same,yield of baccatin III,[17],0.44 mg/L
same,yield of cephalomannine,[17],0.78 mg/L
same,yield of taxol,[17],0.92 mg/L
same,growth rate,[18],2.2 times
same,total yield of taxane,[18],7.98 mg/L
same,yield of baccatin III,[18],1.57 mg/L
same,yield of cephalomannine,[18],2.03 mg/L
same,yield of taxol,[18],4.38 mg/L
same,growth rate,[19],2.7 times
same,total yield of taxane,[19],10.02 mg/L
same,yield of baccatin III,[19],1.64 mg/L
same,yield of cephalomannine,[19],3.46 mg/L
same,yield of taxol,[19],4.92 mg/L
same,growth rate,[20],3.2 times
same,total yield of taxane,[20],28.29 mg/L
same,yield of baccatin III,[20],5.68 mg/L
same,yield of cephalomannine,[20],6.50 mg/L
same,yield of taxol,[20],16.11 mg/L
same,growth rate,[21],3.2 times
same,total yield of taxane,[21],20.56 mg/L
same,yield of baccatin III,[21],4.36 mg/L
same,yield of cephalomannine,[21],5.98 mg/L
same,yield of taxol,[21],10.22 mg/L
same,growth rate,[10],3.1 times
same,total yield of taxane,[10],13.48 mg/L
same,yield of baccatin III,[10],2.01 mg/L
same,yield of cephalomannine,[10],4.37 mg/L
same,yield of taxol,[10],7.10 mg/L
same,growth rate,[22],2.9 times
same,total yield of taxane,[22],3.60 mg/L
same,yield of baccatin III,[22],1.17 mg/L
same,yield of cephalomannine,[22],1.11 mg/L
same,yield of taxol,[22],1.32 mg/L
same,growth rate,[23],2.5 times
same,total yield of taxane,[23],62.78 mg/L
same,yield of baccatin III,[23],23.00 mg/L
same,yield of cephalomannine,[23],9.46 mg/L
same,yield of taxol,[23],30.32 mg/L
same,growth rate,[24],2.4 times
same,total yield of taxane,[24],74.83 mg/L
same,yield of baccatin III,[24],25.85 mg/L
same,yield of cephalomannine,[24],15.21 mg/L
same,yield of taxol,[24],33.77 mg/L
same,growth rate,[25],2.7 times
same,total yield of taxane,[25],52.24 mg/L
same,yield of baccatin III,[25],17.61 mg/L
same,yield of cephalomannine,[25],7.99 mg/L
same,yield of taxol,[25],26.64 mg/L
same,growth rate,[26],2.4 times
same,total yield of taxane,[26],16.36 mg/L
same,yield of baccatin III,[26],2.25 mg/L
same,yield of cephalomannine,[26],5.79 mg/L
same,yield of taxol,[26],8.32 mg/L
same,growth rate,[27],2.6 times
same,total yield of taxane,[27],1.08 mg/L
same,yield of baccatin III,[27],0.16 mg/L
same,yield of cephalomannine,[27],0.63 mg/L
same,yield of taxol,[27],0.29 mg/L
same,growth rate,[28],2.6 times
same,total yield of taxane,[28],1.05 mg/L
same,yield of baccatin III,[28],0.15 mg/L
same,yield of taxol,[28],0.29 mg/L
same,growth rate,[29],2.5 times
same,total yield of taxane,[29],0.98 mg/L
same,yield of baccatin III,[29],0.15 mg/L
same,yield of cephalomannine,[29],0.56 mg/L
same,yield of taxol,[29],0.27 mg/L
C=C [ethylene],production of the taxane-type diterpene by the tissues and the cells,,greatly inhibits
